{"source": "paper PMC4388716", "about": "“An Exploratory Study on ^99mTc-RGD-BBN Peptide Scintimammography in the Assessment of Breast Malignant Lesions Compared to ^99mTc-3P4-RGD2” (PLoS ONE, 2015)", "key": {"[1]": {"conditions": "cited from earlier work; for Effective radiation dose of conventional nuclear medical imaging agent examination: in vivo", "text": "The effective radiation dose to the body of ^99mTc-3P4-RGD2 and ^99mTc-RGD-BBN were 1.15 ± 0.13 mSv and 0.65 ± 0.07 mSv respectively ^9. According to the 2007 Recommendations of the International Commission on Radiological Protection (ICRP), radiation equivalent dose which occupational workers’ vital organs were exposed to should be less than 500mSv and radiosensitive organs should be less than 150mSv. In our study, the mean absorbed dose equivalent for the whole body was 2.02E-03 mSv / MBq in healthy males and 2.31E-03 mSv / MBq in healthy females. Compared with other clinical mar ..."}, "breast malignant lesions": {"tested_on": "breast malignant lesions", "test": "SPECT/CT scintimammography of patients with breast malignant tumors", "type": "in vivo, human", "parameters": "key to Visual uptake grading: grade 1 = no abnormal increased uptake; grade 2 = mildly increased or heterogeneous uptake; grade 3 = definite focal increased uptake", "conditions": "for Visual uptake grading: SPECT/CT 1 h p.i., 3 readers", "text": "All patients were sent to the ^99mTc-3P4-RGD2 and ^99mTc-RGD-BBN SMM on an individual basis. The time interval between two imaging procedures was 48–54 hr. Finally, ^99mTc-RGD-BBN and ^99mTc-3P4-RGD2 SMM results were compared with each other. To be included, a patient had to be without any other history of breast disease. Exclusion criteria included pregnancy, lactation and a body weight greater than 80 kg.\nThe 3P4-RGD2 and RGD-BBN were generously provided by the Medical Isotopes Research Center of Peking University in freeze-dried kits form. Na^99mTcO4 was obtained from a commercial ^99Mo/^99mTc generator (Beijing Atom High Tech Co., Ltd.). The kit for preparation of ^99mTc-3P4-RGD2 was formulated by containing, per millilitre, 20 μg of HYNIC-3P4-RGD2, 5 mg of TPPTS, 6.5 mg of tricine, 40 mg of mannitol, 38.5 mg of disodium succinate hexahydrate and 12.7 mg of succinic acid. Radiolabeling and quality control procedures for ^99mTc-3P4-RGD2 were performed as described previously ^4. The kit for preparation of ^99mTc-RGD-BBN was formulated by containing, per millilitre, 20 μg of HYNIC-RGD-BBN, 6 mg of TPPTS, 10 mg of tricine, 40 mg of mannitol, 38.5 mg of disodium succinate hexahydrate and 12.7 mg of succinic acid. Then 1 mL of Na^99mTcO4 solution in saline was added to each kit vial followed by 30 min incubation at 100°C. The quality control was conducted by radioactive thin layer chromatography (ITLC), counting the high labeling yield of about 95%. Both ^99mTc-3P4-RGD2 and ^99mTc-RGD-BBN with a mean radioactivity of 299 ± 30 MBq and 293 ± 32 MBq were administered via single intravenous bolus injection followed by a 10 mL saline flush. ^99mTc-3P4-RGD2 and ^99mTc-RGD-BBN was performed with SPECT/CT at 1 h after intravenous injection of radiotracers respectively on separate days.\nSPECT: Emission images were acquired using a dual-head, large field-of-view scintillation camera (Precedence, Philips Healthcare), equipped with a low-energy, high-resolution and parallel-hole collimator. In all healthy volunteers, planar images in both anterior and posterior views were acquired at 10 min, 30 min, 1 h, 2 h, 4 h, 8 h and 24 h post-injection and were stored digitally, using ^99mTc with a 20% energy window centered on 140 keV and 128×128 matrix. The velocity of scanning was 15 cm/min. SPECT images in all the patients were acquired over 360° (180°per head) in supine position with raised arms during the imaging. Imaging with both radiotracers was performed using 6°angular steps in a 20 s time frame, with a 64×64 matrix size. Distance between the breast and detector was minimized. The position of the patient was recorded in detail and kept consistent to the greatest extent in the second SPECT scan to make sure that the two different SPECT images could be fused to the CT images.\nCT images from neck to abdomen were acquired sequentially in a non-dedicated 3rd-generation scanner installed in the SPECT camera gantry, with a 10 mm slice thickness, a maximum current of 2.5 mA and a 140 kV potential. The patients just had one CT scan since ^99mTc-3P4-RGD2 and ^99mTc-RGD-BBN SPECT were undertaken on the same device.\nAll images were interpreted qualitatively by three experienced nuclear medicine radiologists who were unaware of the clinical history and other test results of all patients. Visual analysis was performed on a per-lesion basis and in a blinded fashion. A 3-point scale system was adopted to describe the uptake degree for breast lesions. […] Homogeneous uptake in both breasts was classified as grade 1. SMM was considered positive for malignancy if the visual score was ≥2. There was no disagreement between three radiologists in our study."}}}
{"compound": "[99Tc].[C-]#[N+]CC(C)(C)OC.[C-]#[N+]CC(C)(C)OC.[C-]#[N+]CC(C)(C)OC.[C-]#[N+]CC(C)(C)OC.[C-]#[N+]CC(C)(C)OC.[C-]#[N+]CC(C)(C)OC", "note": "[99mTc—MIBI]", "values": [{"measurement": "Effective radiation dose of conventional nuclear medical imaging agent examination", "setting": "[1]", "result": 7.05, "unit": "mSv"}]}
{"compound": "[^99mTc (HYNIC-3PRGD2) (tricine) (TPPTS)] [99mTc-3P4-RGD2]", "values": [{"measurement": "Visual uptake grading", "setting": "breast malignant lesions; Patient 1: DCIS, R, 2.3 cm, αvβ3 -, GRPR +", "result": 1}, {"measurement": "Visual uptake grading", "setting": "breast malignant lesions; Patient 2: DCIS, L, 2.0 cm, αvβ3 +, GRPR +", "result": 3}, {"measurement": "Visual uptake grading", "setting": "breast malignant lesions; Patient 3: IDC, L, 5.1 cm, αvβ3 +, GRPR +", "result": 3}, {"measurement": "Visual uptake grading", "setting": "breast malignant lesions; Patient 4: IDC, R, 2.1 cm, αvβ3 +, GRPR -", "result": 3}, {"measurement": "Visual uptake grading", "setting": "breast malignant lesions; Patient 5: IDC, L, 5.8 cm, αvβ3 +, GRPR +", "result": 3}, {"measurement": "Visual uptake grading", "setting": "breast malignant lesions; Patient 6: IDC, L, 6.3 cm, αvβ3 +, GRPR +", "result": 3}, {"measurement": "Malignant lesions detected by SPECT/CT (of 6 malignant lesions in 6 patients)", "setting": "breast malignant lesions; SPECT/CT 1 h after i.v. injection, 4 IDC, 2 DCIS", "result": "five lesions with clear uptake and the other one with barely uptake"}, {"measurement": "Effective radiation dose to the body", "setting": "[1]; per examination (299 ± 30 MBq 99mTc-3P4-RGD2, 293 ± 32 MBq 99mTc-RGD-BBN i.v.)", "result": "1.15 ± 0.13", "unit": "mSv"}]}
{"compound": "O.O.O=P([O-])([O-])CP(=O)([O-])[O-].[99Tc+4]", "note": "[99mTc—MDP]", "values": [{"measurement": "Effective radiation dose of conventional nuclear medical imaging agent examination", "setting": "[1]", "result": 5.92, "unit": "mSv"}]}
